Consider 22 compounds from patent publication US10239873B2, “7-azaindole or 4,7-diazaindole derivatives as IKKϵ epsilon and TBK1 inhibitor and pharmaceutical composition comprising same” (GREEN CROSS CORPORATION, priority 2015, dated 2019).

One experiment addresses T1, IKKε (Homo sapiens, UniProt Q14164).
T1 construct: purchased Promega and/or Invitrogen V4158; PR8031B; V3991 (not assigned to the two kinases)
T1 sequence (Q14164 1-716): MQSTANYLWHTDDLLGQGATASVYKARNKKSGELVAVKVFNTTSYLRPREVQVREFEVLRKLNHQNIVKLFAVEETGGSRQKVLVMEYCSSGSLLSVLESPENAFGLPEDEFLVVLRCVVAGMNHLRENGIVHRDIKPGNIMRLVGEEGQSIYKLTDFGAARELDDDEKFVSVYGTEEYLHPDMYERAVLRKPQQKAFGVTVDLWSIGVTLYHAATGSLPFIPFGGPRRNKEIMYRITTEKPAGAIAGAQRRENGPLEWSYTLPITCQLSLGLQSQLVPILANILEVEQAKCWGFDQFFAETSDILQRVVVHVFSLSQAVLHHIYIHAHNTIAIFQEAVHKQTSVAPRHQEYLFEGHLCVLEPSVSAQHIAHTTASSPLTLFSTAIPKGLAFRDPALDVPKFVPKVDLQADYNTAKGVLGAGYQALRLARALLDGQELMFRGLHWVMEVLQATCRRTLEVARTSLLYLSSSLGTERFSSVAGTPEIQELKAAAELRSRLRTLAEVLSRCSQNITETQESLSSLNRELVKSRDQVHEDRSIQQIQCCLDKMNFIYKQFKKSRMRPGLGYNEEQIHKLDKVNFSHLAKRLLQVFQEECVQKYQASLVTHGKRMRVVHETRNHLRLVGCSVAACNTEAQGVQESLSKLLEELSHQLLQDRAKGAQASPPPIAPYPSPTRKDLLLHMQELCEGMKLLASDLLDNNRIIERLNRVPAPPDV
In words: ADP-Glo Kinase Assay, inhibition activity on IKKε. In kind it is biochemical. As to the method:
Inhibition activities on IKKϵ and TBK1 were evaluated using the compounds of Examples 1 to 250.
The inhibition activities on IKKϵ and TBK1 were measured by a luminometer, IKKϵ/TBK1 Kinase Enzyme System (Promega, Ca# V4158; Invitrogen, PR8031B, Promega, Ca# V3991) and ADP-Glo Kinase Assay using ADP-Glo™ Kinase Analysis Kit (Promega, Ca# V9101) and a kinase reaction buffer [40 mM Tris(pH 7.5), 20 mM MgCl2, 0.1 mg/mL BSA] in accordance with the manufacturer's protocol.

Another experiment concerns the target T2, TBK1 (Homo sapiens, UniProt Q9UHD2).
T2 construct: purchased Promega (Invitrogen is also named in the same bracket) V4158; PR8031B; V3991 (not assigned to the two kinases)
T2 sequence (Q9UHD2 1-729): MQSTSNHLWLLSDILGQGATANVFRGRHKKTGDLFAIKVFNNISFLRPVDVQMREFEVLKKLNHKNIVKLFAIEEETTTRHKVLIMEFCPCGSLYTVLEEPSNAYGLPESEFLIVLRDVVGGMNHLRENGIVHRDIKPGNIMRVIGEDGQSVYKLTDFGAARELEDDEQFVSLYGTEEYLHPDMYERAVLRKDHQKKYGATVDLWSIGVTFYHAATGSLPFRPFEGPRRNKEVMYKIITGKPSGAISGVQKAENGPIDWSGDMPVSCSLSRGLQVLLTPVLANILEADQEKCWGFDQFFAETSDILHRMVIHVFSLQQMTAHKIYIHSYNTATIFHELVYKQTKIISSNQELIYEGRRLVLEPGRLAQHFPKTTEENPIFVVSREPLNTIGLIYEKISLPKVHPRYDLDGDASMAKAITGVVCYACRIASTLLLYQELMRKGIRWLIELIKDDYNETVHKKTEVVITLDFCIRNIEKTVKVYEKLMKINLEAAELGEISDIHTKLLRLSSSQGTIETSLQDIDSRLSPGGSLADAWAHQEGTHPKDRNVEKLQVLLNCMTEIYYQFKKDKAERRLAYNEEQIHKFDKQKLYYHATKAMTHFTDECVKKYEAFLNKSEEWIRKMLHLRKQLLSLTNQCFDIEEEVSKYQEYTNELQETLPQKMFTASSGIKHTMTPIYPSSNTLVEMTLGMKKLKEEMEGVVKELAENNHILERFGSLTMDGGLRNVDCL
Description: ADP-Glo Kinase Assay, inhibition activity on TBK1. In kind it is biochemical. In outline:
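Kinase activity measured with the ADP-Glo luminescent ADP-detection kit per manufacturer's protocol, using IKKε or TBK1 kinase enzyme systems. Reaction buffer: 40 mM Tris (pH 7.5), 20 mM MgCl2, 0.1 mg/mL BSA; luminescence read on a luminometer.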
(In general: ADP-Glo first removes unused ATP, then detects ADP through luciferase.)

In the case of `CC1C=C(c2c[nH]c3ncc(-c4ccc(CN5CCN(C)CC5)s4)cc23)CCN1C(=O)NC1CCCC1` (racemic) [Example 107, N-cyclopentyl-2-methyl-4-(5-(5-((4-methylpiperazin-1-yl)methyl)thiophen-2-yl)-1H-pyrrolo[2,3-b]pyridin-3-yl)-5,6-dihydropyridine-1(2H)-carboxamide], the IC50 (in general, the point on the concentration scale where inhibition reaches its midpoint) against IKKε came to 0.0032 µM; against TBK1, 0.0027 µM.
For `CN1CC=C(c2c[nH]c3ncc(-c4ccc(CN5CCOCC5)s4)cc23)CC1` [Example 1, 4-((5-(3-(1-Methyl-1,2,3,6-tetrahydropyridin-4-yl)-1H-pyrrolo[2,3-b]pyridin-5-yl)thiophen-2-yl)methyl)morpholine], the half-inhibitory concentration (IC50) was more than 10 µM against IKKε and 6.86 µM on TBK1.
In the same order, the values of `COc1ccc(-c2cnc3[nH]cc(C4=CCN(C)CC4)c3c2)cc1OC` [Example 2, 5-(3,4-Dimethoxyphenyl)-3-(1-methyl-1,2,3,6-tetrahydropyridin-4-yl)-1H-pyrrolo[2,3-b]pyridine] are more than 10 µM and 9.04 µM.
On to `CCN1CC=C(c2c[nH]c3ncc(-c4ccc(OC)c(OC)c4)cc23)CC1` [Example 3, 5-(3,4-Dimethoxyphenyl)-3-(1-ethyl-1,2,3,6-tetrahydropyridin-4-yl)-1H-pyrrolo[2,3-b]pyridine], for which the half-maximal inhibitory concentration (IC50) against IKKε is more than 10 µM; against TBK1 it was 5.93 µM.
As for `CCCN1CC=C(c2c[nH]c3ncc(-c4ccc(OC)c(OC)c4)cc23)CC1` [Example 4, 5-(3,4-Dimethoxyphenyl)-3-(1-propyl-1,2,3,6-tetrahydropyridin-4-yl)-1H-pyrrolo[2,3-b]pyridine], the IC50 on IKKε was determined as 5.14 µM; at TBK1, 3.23 µM.
Take `COc1ccc(-c2cnc3[nH]cc(C4=CCN(CC(C)C)CC4)c3c2)cc1OC` [Example 5, 5-(3,4-Dimethoxyphenyl)-3-(1-isobutyl-1,2,3,6-tetrahydropyridin-4-yl)-1H-pyrrolo[2,3-b]pyridine]: the IC50 against IKKε turned out to be 2.75 µM; against TBK1, 1.56 µM.
For the compound `CCN1CC=C(c2c[nH]c3ncc(-c4ccc(CN5CCOCC5)s4)cc23)CC1` [Example 6, 4-((5-(3-(1-Ethyl-1,2,3,6-tetrahydropyridin-4-yl)-1H-pyrrolo[2,3-b]pyridin-5-yl)thiophen-2-yl)methyl)morpholine], the IC50 at IKKε is 8.9 µM; against TBK1, 4.08 µM.
Regarding `CCCN1CC=C(c2c[nH]c3ncc(-c4ccc(CN5CCOCC5)s4)cc23)CC1` [Example 7, 4-((5-(3-(1-Propyl-1,2,3,6-tetrahydropyridin-4-yl)-1H-pyrrolo[2,3-b]pyridin-5-yl)thiophen-2-yl)methyl)morpholine], the values for the IC50 against IKKε and against TBK1 were 4.25 µM and 1.91 µM, respectively.
For `CC(=O)N1CC=C(c2c[nH]c3ncc(-c4ccc(CN5CCOCC5)s4)cc23)CC1` [Example 8, 1-(4-(5-(5-(Morpholinomethyl)thiophen-2-yl)-1H-pyrrolo[2,3-b]pyridin-3-yl)-3,6-dihydropyridin-1(2H)-yl)ethan-1-one], the values for the IC50 at IKKε and at TBK1 were 0.66 µM and 0.14 µM, respectively.
Regarding `CCCCC(=O)N1CC=C(c2c[nH]c3ncc(-c4ccc(CN5CCOCC5)s4)cc23)CC1` [Example 9, 1-(4-(5-(5-(Morpholinomethyl)thiophen-2-yl)-1H-pyrrolo[2,3-b]pyridin-3-yl)-3,6-dihydropyridin-1(2H)-yl)pentan-1-one], the IC50 at IKKε came out at 0.51 µM; on TBK1 it was 0.33 µM.
`CC(C)CC(=O)N1CC=C(c2c[nH]c3ncc(-c4ccc(CN5CCOCC5)s4)cc23)CC1` [Example 10, 3-Methyl-1-(4-(5-(5-(morpholinomethyl)thiophen-2-yl)-1H-pyrrolo[2,3-b]pyridin-3-yl)-3,6-dihydropyridin-1(2H)-yl)butan-1-one]: the IC50 was 0.13 µM against IKKε and 0.075 µM on TBK1.
For `CC(C)NC(=O)N1CC=C(c2c[nH]c3ncc(-c4ccc(CN5CCOCC5)o4)cc23)CC1` [Example 36, N-isopropyl-4-(5-(5-(morpholinomethyl)furan-2-yl)-1H-pyrrolo[2,3-b]pyridin-3-yl)-5,6-dihydropyridine-1(2H)-carboxamide], at IKKε, the half-maximal inhibitory concentration (IC50) amounted to 0.0093 µM.
Turning to `COc1ccc(-c2cnc3[nH]cc(C4=CCN(C(=O)OC(C)(C)C)CC4)c3c2)cc1OC` [Example 239, tert-butyl 4-(5-(3,4-dimethoxyphenyl)-1H-pyrrolo[2,3-b]pyridin-3-yl)-5,6-dihydropyridine-1(2H)-carboxylate], half-maximal inhibition on TBK1 (IC50) required 0.3 µM.
For the compound `CC(=O)Nc1cccc(-c2cnc3[nH]cc(C4=CCN(C(=O)OC(C)(C)C)CC4)c3c2)c1` [Example 240, tert-butyl 4-(5-(3-acetamidophenyl)-1H-pyrrolo[2,3-b]pyridin-3-yl)-5,6-dihydropyridine-1(2H)-carboxylate], at TBK1, the IC50 stood at 0.2 µM.
Compound `CC(=O)Nc1ccc(-c2cnc3[nH]cc(C4=CCN(C(=O)OC(C)(C)C)CC4)c3c2)cc1` [Example 241, tert-butyl 4-(5-(4-acetamidophenyl)-1H-pyrrolo[2,3-b]pyridin-3-yl)-5,6-dihydropyridine-1(2H)-carboxylate] had an IC50 at TBK1 of 0.17 µM.
On the same count and under the same terms, for `CCCOc1cccc(-c2cnc3[nH]cc(C4=CCN(C(=O)OC(C)(C)C)CC4)c3c2)c1` [Example 242, tert-butyl 4-(5-(3-propoxyphenyl)-1H-pyrrolo[2,3-b]pyridin-3-yl)-5,6-dihydropyridine-1(2H)-carboxylate] the value was 1.3 µM.
In turn, `CCCOc1ccc(-c2cnc3[nH]cc(C4=CCN(C(=O)OC(C)(C)C)CC4)c3c2)cc1` [Example 243, tert-butyl 4-(5-(4-propoxyphenyl)-1H-pyrrolo[2,3-b]pyridin-3-yl)-5,6-dihydropyridine-1(2H)-carboxylate] gave an IC50 against TBK1 of 1.7 µM.
Still for that read-out and setting: for `COc1ccccc1-c1cnc2[nH]cc(C3=CCN(C(=O)OC(C)(C)C)CC3)c2c1` [Example 244, tert-butyl 4-(5-(2-methoxyphenyl)-1H-pyrrolo[2,3-b]pyridin-3-yl)-5,6-dihydropyridine-1(2H)-carboxylate] the value was 1.8 µM; for `COc1ccc(-c2cnc3[nH]cc(C4=CN(C(=O)OC(C)(C)C)CCC4)c3c2)cc1OC` [Example 245, tert-butyl 5-(5-(3,4-dimethoxyphenyl)-1H-pyrrolo[2,3-b]pyridin-3-yl)-3,4-dihydropyridine-1(2H)-carboxylate], 8.8 µM; for `COc1ccc(-c2cnc3[nH]cc(-c4ccc(CC(=O)NC5CCCC5)cc4)c3c2)cc1OC` [Example 246, N-cyclopentyl-2-(4-(5-(3,4-dimethoxyphenyl)-1H-pyrrolo[2,3-b]pyridin-3-yl)phenyl)acetamide 2,2,2-trifluoroacetate], 4.1 µM.
Consider `O=C(O)Cc1ccc(-c2c[nH]c3ncc(-c4ccc(CN5CCOCC5)s4)cc23)cc1` [Example 247, 2-(4-(5-(5-(morpholinomethyl)thiophen-2-yl)-1H-pyrrolo[2,3-b]pyridin-3-yl)phenyl)acetic acid], for which, at TBK1, 1.3 µM corresponded to half-maximal inhibition (IC50).
Consider `O=C(Cc1ccc(-c2c[nH]c3ncc(-c4ccc(CN5CCOCC5)s4)cc23)cc1)NC1CCCC1` [Example 248, N-cyclopentyl-2-(4-(5-(5-(morpholinomethyl)thiophen-2-yl)-1H-pyrrolo[2,3-b]pyridin-3-yl)phenyl)acetamide 2,2,2-trifluoroacetate], for which, at TBK1, it took 2.1 µM to reach half-maximal inhibition (IC50).
